In the RepoRT retention time repository (doi:10.1016/j.foodchem.2021.129757) one finds LC retention time data, which are given here for 34 compounds.

One data set is described as follows: RP, Agilent ZORBAX Eclipse XDB-C18, 100 × 2.1 mm, 1.8 µm, 50 °C, 0.4 mL/min, estimated dead time 0.55 min; A: water + 0.1% formic acid, pH 3; B: methanol + 0.1% formic acid, pH 3; gradient (min/%B) 0/2 10/100 14.5/100 14.51/2 16.5/2. The settings on record: stereoisomer not certain.
Regarding `Nc1nc2ncc(CNc3ccc(C(=O)NC(CCC(=O)O)C(=O)O)cc3)nc2c(=O)[nH]1` (stereo not drawn) [Folic acid], the LC retention time was 3.46 min.
As for `O=C(O)CCCCCCCC(=O)O` [Azelaic acid], the LC retention time was 5.74 min.
In the case of `O=C(O)Cc1c[nH]c2ccccc12` [3-Indoleacetic acid], the LC retention time was 5 min.
For the compound `O=C(O)CC(O)(CC(=O)O)C(=O)O` [Citric acid], the LC retention time is 1.09 min.
Consider `Cn1c(=O)c2c(ncn2C)n(C)c1=O` [Caffeine], for which the LC retention time is 3.67 min.
For the compound `Cn1c(=O)[nH]c2ncn(C)c2c1=O` [Paraxanthine], the LC retention time is 2.93 min.
Take `Cc1ncc(CO)c(C=O)c1O` [Pyridoxal]: the LC retention time is 1.35 min.

The nature of another data set: RP, Phenomenex Synergi Hydro-RP, 250 × 2 mm, 4 µm, 25 °C, 0.2 mL/min, estimated dead time 2.5 min; A: water + 0.1% formic acid, pH 3; B: acetonitrile + 0.1% formic acid, pH 3; gradient (min/%B) 0/0.5 7/0.5 12/12.5 25/16.3 47/35 48/65 50/65 50.1/0.5. Conditions: stereoisomer not certain.
Consider `Nc1nc2ncc(CNc3ccc(C(=O)NC(CCC(=O)O)C(=O)O)cc3)nc2c(=O)[nH]1` (stereo not drawn) [Folic acid], for which the LC retention time is 19 min.
Same read-out and setting: the figure for `O=S(=O)(O)ON=C(CCc1ccccc1)SC1OC(CO)C(O)C(O)C1O` (stereo not drawn) [Gluconasturtiin] is 19.3 min; for `CC(=O)OCC1OC(Oc2c(-c3ccc(O)c(O)c3)oc3cc(O)cc(O)c3c2=O)C(O)C(O)C1O` (stereo not drawn) [Quercetin-3-O-(6-acetylglucoside)] it is 38.8 min; for `COc1ccc(C=CC(=O)O)cc1` [4-methoxycinnamic acid] it is 48 min.
As for `O=c1[nH]c(=O)c2[nH]c(=O)[nH]c2[nH]1` [Uric acid], the LC retention time was 7.67 min.
With `O=C(O)CC(O)(CC(=O)O)C(=O)O` [Citric acid], the LC retention time was 6.32 min.
Same read-out and setting: the figure for `O=C(C=Cc1ccc(O)cc1)OCC1OC(Oc2c(-c3ccc(O)cc3)oc3cc(O)cc(O)c3c2=O)C(O)C(O)C1O` (stereo not drawn) [Tiliroside] is 47 min; for `O=C(O)C1(O)CC(O)C(O)C(O)C1` (stereo not drawn) [Quinic acid] it is 3.21 min.
On to `CS(=O)CCCCC(=NOS(=O)(=O)O)SC1OC(CO)C(O)C(O)C1O` (stereo not drawn) [Glucoraphanin], for which the LC retention time is 6.23 min.
On to `Cn1c(=O)c2c(ncn2C)n(C)c1=O` [Caffeine], for which the LC retention time is 21.3 min.
Same read-out and setting: under `COc1ccccc1C(=O)O` [o-Anisic acid] stands 31.4 min; under `O=C(O)C(O)Cc1ccccc1` (stereo not drawn) [3-Phenyllactic acid], 27.2 min.
As for `COc1cccc(C=CC(=O)O)c1` [3-methoxycinnamic acid], the LC retention time was 49.1 min.
Same read-out and setting: under `COc1cccc(C(=O)O)c1` [m-Anisic acid] stands 40.2 min; under `CC1OC(OCC2OC(Oc3c(-c4ccc(O)cc4)oc4cc(OC5OC(C)C(O)C(O)C5O)cc(O)c4c3=O)C(O)C(O)C2O)C(O)C(O)C1O` (stereo not drawn) [Robinin], 31.8 min.
On the same count and under the same terms, under `C=CCC(=NOS(=O)(=O)O)SC1OC(CO)C(O)C(O)C1O` (stereo not drawn) [Sinigrin] stands 5.52 min; under `CS(=O)CCCC(=NOS(=O)(=O)O)SC1OC(CO)C(O)C(O)C1O` (stereo not drawn) [Glucoiberin], 4.44 min.
For `COc1ccccc1C=CC(=O)O` [2-Methoxycinnamic acid], the LC retention time is 50 min.
As to `O=C(O)c1cccnc1` [Niacin], the LC retention time was 5.51 min.
Same read-out and setting: under `O=C(O)CCc1ccccc1` [3-phenylpropionic acid] stands 44.5 min; under `CC1OC(OCC2OC(Oc3c(-c4ccc(O)c(O)c4)oc4cc(OC5OC(CO)C(O)C(O)C5O)cc(O)c4c3=O)C(O)C(O)C2O)C(O)C(O)C1O` (stereo not drawn) [Quercetin 3-O-rutinoside-7-O-glucoside], 20.6 min; under `O=C(O)CNCc1ccccc1O` [salicylglycine], 27.4 min.
The same measure, in the same setting: under `C=CCCC(=NOS(=O)(=O)O)SC1OC(CO)C(O)C(O)C1O` (stereo not drawn) [Gluconapin] stands 12.7 min; under `O=c1c(OC2OC(CO)C(O)C(O)C2O)c(-c2ccc(O)cc2)oc2cc(O)cc(O)c12` [Kaempferol 3-O-D-galactoside], 37.2 min.
For `O=C(O)CC(=O)OCC1OC(Oc2c(-c3ccc(O)c(O)c3)oc3cc(O)cc(O)c3c2=O)C(O)C(O)C1O` (stereo not drawn) [Quercetin 3-O-malonylglucoside], the LC retention time is 37 min.
For the compound `COc1cc(CCC(=O)O)ccc1O` [Hydroferulic acid], the LC retention time is 28.5 min.
Regarding `COc1ccc(CC(=O)O)cc1OC` [homoveratric acid], the LC retention time is 32.5 min.

The nature of the next data set: RP, Waters ACQUITY UPLC HSS T3, 100 × 2.1 mm, 50 °C; A: water + 0.1% formic acid, pH 3; B: 30% methanol + 70% acetonitrile + 0.1% formic acid, pH 3; gradient (min/%B) 0/5 1/8 2/15 3/40 4/70 4.5/100 5/100 6.4/100 6.6/5 6.8/5 7/5. Conditions: stereoisomer not certain.
With `CC(C)C1NC(=O)C2CCCN2C1=O` (stereo not drawn) [Cyclo(Pro-Val)], the LC retention time worked out at 3.1 min.
On the same count and under the same terms, the figure for `O=C(O)CCCCCCCC(=O)O` [Azelaic acid] is 3.63 min; for `O=C(O)Cc1c[nH]c2ccccc12` [3-Indoleacetic acid] it is 3.62 min.
`O=C(O)CC(O)(CC(=O)O)C(=O)O` [Citric acid]: the LC retention time came to 0.67 min.
Take `O=C(O)C1(O)CC(O)C(O)C(O)C1` (stereo not drawn) [Quinic acid]: the LC retention time was found to be 0.58 min.
As to `Cn1c(=O)c2c(ncn2C)n(C)c1=O` [Caffeine], the LC retention time turned out to be 3.1 min.
For the compound `O=C(O)C1OC(Oc2ccccc2O)C(O)C(O)C1O` (stereo not drawn) [Catechol-O-1-glucuronide], the LC retention time came out at 2.65 min.
Consider `Cn1c(=O)[nH]c2ncn(C)c2c1=O` [Paraxanthine], for which the LC retention time was 2.56 min.
On to `Cn1c(=O)c2[nH]c(=O)[nH]c2n(C)c1=O` [1,3-Dimethyluric acid], for which the LC retention time was 2.01 min.
